Reference: patent EP3431468B1, “USE OF ADIPONECTIN RECEPTOR AGONISTS IN TREATING DEPRESSION, ANXIETY AND NEUROINFLAMMATION” (CENTRE NATIONAL DE LA RECHERCHE SCIENTIFIQUE, priority 2017, dated 2019)

How the values were obtained:
[1] = test system: pro-inflammatory cytokines (IL1β, IL6, TNFα, IFNγ); test: Pro-inflammatory cytokines measurement in brain areas (ECL-based assay); type: in vivo; settings: corticosterone-treated mice, chronic AdipoRon
Procedure: Data were digitized at 5-10 kHz using a Digidata interface coupled to a microcomputer running pClamp 9 (Axon Instruments, USA). Current-clamp data were digitized at 0.5 kHz using the same interface. Potentials were digitally filtered at 1-3 kHz. Average data were expressed as mean ± SEM, n = number of neurons, N = number of mice. • Western blot analysis - Total proteins were extracted from mouse hypothalamus by homogenization in lysis buffer (50mM Tris-HCl, pH7.5, 150mM NaCl, 5mM EDTA containing 0.5% Triton X-100 and 0.5% sodium deoxycholate with a coktail of protease and phosphatase inhibitors). Equal amounts of total proteins (50µg) determined by the Bradford method (BioRad) were separated onto 12% SDS-PAGE, then transferred on nitrocellulose membrane (Schleicher & Schuell, Dassel, Germany). Blots were incubated in PBS 0.1% Tween, 2% BSA with antibodies directed against phospho-AMPKα (Thr172), total AMPK (Cell Signaling), and then with the appropriate HRP-secondary antibody. […] IFNγ, IL1β, IL6, and TNFα, levels were measured using an electro-chemo-luminescence (ECL)-based assay (U-plex, MesoScaleDiscovery) following manufacturer instructions. Results were standardized according to the protein concentration of each sample determined by the Bradford method. • Kynurenine pathway metabolites measurement - Plasma levels of L-kynurenin (L-Kyn), tryptophan (Trp), kynurenin acid (Kyn ac), 5-HT and 5-HIAA were determined as follows: 25µl of plasma was deproteinated with 150µl of cold MeOH. […] Determination of L-Kyn, Trp, Kyn ac, 5-HT and 5-HIAA levels, done in triplicate, were determined by liquid chromatography coupled to MS-MS analysis as previously described with minor modifications (Fuertig, Ceci et al. 2016). • Statistical Analysis - Statistical analyses were performed using GraphPad Prism 4.0 software. Biological parameters and q-PCR data were analyzed using a one-way (treatment) or two-way (pretreatment X treatment) analysis of variance, followed by a post-hoc multiple comparison procedure using the Dunnett's method. […]

[2] = test system: wt and depression-like mouse models; test: Forced Swimming test (FST), acute administration; type: in vivo, mice

## O=C(COc1ccc(C(=O)c2ccccc2)cc1)NC1CCN(Cc2ccccc2)CC1 [AdipoRon, 2-(4-Benzoylphenoxy)-N-[1-(phenylmethyl)-4-piperidinyl]-acetamide]
[1]; hippocampus
  corticosterone-induced cytokines differences (IFNγ): abolished
[1]; hypothalamus
  corticosterone-induced cytokines differences (IL1β, TNFα, IFNγ): abolished
[1]; prefrontal cortex
  corticosterone-induced cytokines differences (IL1β, IL6, TNFα): abolished
[2]; ApN-/- mice, 0.5mg/kg ip, one-hour post injection
  immobility time in the FST: remained inefficient
[2]; ApN-/- mice, 1mg/kg per os (gavage), one-hour before FST
  immobility time in the FST: reduced the immobility time
[2]; ApN-/- mice, 5mg/kg ip, one-hour post injection
  immobility time in the FST: decreased the immobility time
[2]; C57BL/6J wt mice, 1mg/kg ip, 1h post-injection, vs vehicle
  immobility time in the FST: decreased the immobility time
[2]; C57BL/6J wt mice, 1mg/kg ip, 3h post-injection, vs vehicle
  immobility time in the FST: no significant effect
[2]; corticosterone-treated mice, 0.5mg/kg ip, one-hour post injection
  immobility time in the FST: significantly reduced the immobility time
[2]; corticosterone-treated mice, 5mg/kg ip, one-hour post injection
  immobility time in the FST: decreased the immobility time
[2]; wt mice, 0.5mg/kg ip, one-hour post injection
  immobility time in the FST: significantly reduced the immobility time
[2]; wt mice, 1mg/kg per os (gavage), one-hour before FST
  immobility time in the FST: reduced the immobility time
[2]; wt mice, 5mg/kg ip, one-hour post injection
  immobility time in the FST: decreased the immobility time
